Reference: paper PMC11205445, “Babesia duncani Pyruvate Kinase Inhibitor Screening and Identification of Key Active Amino Acid Residues” (Microorganisms, 2024)
Several values for one entry are separate records, joined by “and”; a condition that tells them apart may be missing. Equal entries are not always repeated. Where two headings read alike, the source gives them in different places.

Experiments:
C=C(OP(=O)(O)O)C(=O)O = test: purified protein, by the assay type; conditions: other: substrate of BdPyK I, gradient concentration; pH 7.5; 37.0 °C
Description: (§2) To conduct standard enzyme kinetics analysis, we employed a spectrophotometer (BioTek, located in Winooski, VT, USA) to monitor the degradation of NADH at 340 nm wavelength. At 37 °C, the oxidation of 1 micromole of NADH per minute was defined as one unit of PyK activity. Samples were measured continuously at 2, 7, 12, 17, 22, and 27 min. In order to investigate the influence of pH, Mg^2+, and K^+ concentrations on activity, tests were conducted within the pH range of 4.0–8.0 and Mg^2+ and K^+ concentrations ranging from 0 to 200 mM, including concentrations of 0, 25, 50, 75, 100, 125, 150, 175, and 200 mM. A reaction system with a total volume of 200 mL was designed, comprising 50 mM Tris-HCl buffer (pH 7.5), 50 mM MgCl2, 20 mM KCl, 3 mM PEP (MilliporeSigma), 3 mM ADP (MilliporeSigma), 0.5 mM NADH (MilliporeSigma), 100 ng recombinant lactate dehydrogenase (rBdLDH), and 100 ng BdPyK I. Enzyme activity was assessed by calculating the initial rate of NADH degradation within the first 5 min and determining the relative percentage activity.
(§3) Subsequently, Michaelis–Menten equations for the reactants PEP and ADP were formulated based on gradient concentrations, and corresponding enzyme kinetics curves were delineated.

[1] = test system: Nc1ncnc2c1ncn2[C@@H]1O[C@H](COP(=O)(O)OP(=O)(O)O)[C@@H](O)[C@H]1O; test: purified protein, by the assay type; conditions: other: substrate of BdPyK I, gradient concentration; pH 7.5; 37.0 °C
Description: as §2, §3

HFF cells [2] = test system: HFF cells; parameters: method as in PMID 34603237; conditions: cited from earlier work
BdPyK I [3] = target: T1, BdPyK I (Babesia duncani, UniProt A0AAD9PKI2); test: BdPyK I enzyme inhibition, indirect coupled lactate dehydrogenase assay (NADH at 340 nm); type: biochemical
T1 sequence (A0AAD9PKI2 entry or part of it): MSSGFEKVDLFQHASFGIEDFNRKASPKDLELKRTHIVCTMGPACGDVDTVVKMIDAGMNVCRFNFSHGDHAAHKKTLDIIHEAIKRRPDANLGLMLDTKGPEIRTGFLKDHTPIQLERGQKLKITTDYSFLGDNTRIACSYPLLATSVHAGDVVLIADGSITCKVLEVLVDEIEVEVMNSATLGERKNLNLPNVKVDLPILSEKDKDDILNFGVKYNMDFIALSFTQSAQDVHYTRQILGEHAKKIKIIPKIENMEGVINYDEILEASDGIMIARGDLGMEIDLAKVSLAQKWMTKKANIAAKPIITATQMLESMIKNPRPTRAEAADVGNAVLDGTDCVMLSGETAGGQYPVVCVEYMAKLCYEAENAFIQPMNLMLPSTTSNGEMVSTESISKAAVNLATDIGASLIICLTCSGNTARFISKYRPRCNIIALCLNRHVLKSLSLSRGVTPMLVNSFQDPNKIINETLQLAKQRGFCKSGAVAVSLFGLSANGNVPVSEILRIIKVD
Description: This study aimed to investigate the effects of six small-molecule compounds on the enzyme activity of BdPyK I. These selected compounds, including PKM2 inhibitor, shikonin, tannic acid, apigenin, pioglitazone, and rosiglitazone, were initially dissolved in their respective stock concentrations using dimethyl sulfoxide (DMSO) or absolute ethanol as solvents. Subsequently, an indirect coupling lactate dehydrogenase assay was employed to evaluate the influence of these compounds on BdPyK I enzyme activity.
To conduct standard enzyme kinetics analysis, we employed a spectrophotometer (BioTek, located in Winooski, VT, USA) to monitor the degradation of NADH at 340 nm wavelength. At 37 °C, the oxidation of 1 micromole of NADH per minute was defined as one unit of PyK activity. Samples were measured continuously at 2, 7, 12, 17, 22, and 27 min. In order to investigate the influence of pH, Mg^2+, and K^+ concentrations on activity, tests were conducted within the pH range of 4.0–8.0 and Mg^2+ and K^+ concentrations ranging from 0 to 200 mM, including concentrations of 0, 25, 50, 75, 100, 125, 150, 175, and 200 mM. A reaction system with a total volume of […] was designed, comprising 50 mM Tris-HCl buffer (pH 7.5), 50 mM MgCl2, 20 mM KCl, 3 mM PEP (MilliporeSigma), 3 mM ADP (MilliporeSigma), 0.5 mM NADH (MilliporeSigma), 100 ng recombinant lactate dehydrogenase (rBdLDH), and 100 ng BdPyK I. Enzyme activity was assessed by calculating the initial rate of NADH degradation within the first 5 min and determining the relative percentage activity.
Under the conditions of 3 mM PEP and 3 mM ADP, the influence of six different small-molecule compounds on the enzymatic activity of BdPyK I was investigated across varying concentrations (0–500 μM). […] The group with the addition of DMSO was designated as the negative control group. The inhibition rate was calculated using the following formula: Inhibitor (%) = (ΔAcontrol − ΔAsample)/ΔAcontrol × 100%. All experiments were independently repeated three times to enhance the reliability and accuracy of the results. Following completion of the experiments, enzyme activity data were analyzed using GraphPad Prism 8.0 software. IC50 values for each small-molecule compound were calculated using software analysis functions. The IC50 value represents the compound concentration required to decrease enzyme activity by 50% and serves as a fundamental parameter for evaluating the inhibitory effect of compounds on enzyme activity.

vero cells [4] = test system: vero cells; parameters: method as in PMID 34603237; conditions: cited from earlier work
B. duncani = test: In vitro growth inhibition assay of Babesia duncani (SYBR Green, 72 h); type: cell-based; conditions: for parasite growth inhibition: at approximately 40 μM
vero cells [5] = test: Cytotoxicity assay, vero cells; type: cell-based; conditions: CC50 Vero versus IC50 B. duncani
Description: (§1) The IC50 value represents a standard metric indicating the concentration of a drug or compound necessary to impede a biological process or inhibit cell growth. In this experiment, the IC50 values of six different compounds against B. duncani in vitro were compared with their IC50 values for BdPyK I activity. […] To contextualize these findings, the CC50 values for vero cells and HFF cells from cytotoxicity assay data were considered collectively. […] Considering the activity, selectivity, and potential toxicity, this study conducted a comprehensive evaluation of the selectivity index (SI).

HFF cells [6] = test: Cytotoxicity assay, HFF cells; type: cell-based; conditions: CC50 HFF versus IC50 B. duncani
Description: as §1

[7] = parameters: method as in PMID 34603237; conditions: in vivo experiments with Babesia rodents; cited from earlier work
BdPyK I [8] = target: T1, BdPyK I; test: Enzyme kinetics of BdPyK I with gradient concentrations of substrates PEP and ADP; conditions: substrate of BdPyK I
Description: as §2, §3

BdLDH = test: Effect of compounds on BdLDH enzyme activity (counter-screen of the coupled assay); type: biochemical, Babesia duncani; conditions: BdLDH activity evaluated separately
[9] = 3 mM PEP and 3 mM ADP, compound 0–500 μM, read-out: IC50 PyK I
[10] = Babesia duncani, in vitro culture, 72 h, Table 3, read-out: IC50 B. duncani
[11] = Babesia duncani, 72 h incubation, SYBR Green, read-out: IC50 of B. duncani growth inhibition (Figure 10)

Molecule: BdPyK I (Babesia duncani)
- Km (C=C(OP(=O)(O)O)C(=O)O): 450 ± 104 µM
- Vmax (C=C(OP(=O)(O)O)C(=O)O): 370 µM/min
- kcat (C=C(OP(=O)(O)O)C(=O)O): 18.3 s⁻¹
- kcat/Km (C=C(OP(=O)(O)O)C(=O)O): 40100 M⁻¹ s⁻¹
- Km [1]: 310 µM and 313.6 ± 24 µM

Molecule: CC(C)=CC[C@@H](O)C1=CC(=O)c2c(O)ccc(O)c2C1=O [Shikonin]
- CC50 (HFF cells [2]): 0.63 ± 0.32 µM
- IC50 (BdPyK I [3]; [9]): 16.5 µM
- CC50 (vero cells [4]): 2.34 ± 0.29 µM
- IC50 (B. duncani; [10]): 3.68 ± 0.48 µM
- Selectivity Index (SI) Vero (vero cells [5]): 0.64
- Selectivity Index (SI) HFF (HFF cells [6]): 0.17

Molecule: O=c1cc(-c2ccc(O)cc2)oc2cc(O)cc(O)c12 [Apigenin]
- CC50 (HFF cells [2]): 36 ± 2.95 µM
- IC50 (BdPyK I [3]): 7.49 µM
- CC50 (vero cells [4]): 58.2 ± 2.67 µM
- IC50 (B. duncani; [10]): 2.81 ± 1.06 µM
- Selectivity Index (SI) Vero (vero cells [5]): 20.64
- toxicity in vivo [7]: high toxicity
- Selectivity Index (SI) HFF (HFF cells [6]): 12.8

Molecule: Nc1ncnc2c1ncn2[C@@H]1O[C@H](COP(=O)(O)OP(=O)(O)O)[C@@H](O)[C@H]1O [ADP]
- Kcat (BdPyK I [8]): 16 S^−1
- Vmax (BdPyK I [8]; gradient concentration): 0.3234 ± 0.018 mM/min

Molecule: CCc1ccc(CCOc2ccc(CC3SC(=O)NC3=O)cc2)nc1 (stereo not shown) [Pioglitazone]
- IC50 (BdPyK I [3]; [9]): 27.5 µM
- IC50 (B. duncani; [11]): 15.4 µM
- parasite growth inhibition (B. duncani; 72 h): 80%

Molecule: CC1=C(CSC(=S)N2CCCCC2)C(=O)c2ccccc2C1=O [PKM2 inhibitor]
- CC50 (HFF cells [2]): 18.7 ± 1.99 µM
- IC50 (BdPyK I [3]; [9]): 10.9 µM
- CC50 (vero cells [4]): 39.3 ± 8.32 µM
- IC50 (B. duncani; [10]): 0.16 ± 0.08 µM
- growth inhibition rate (B. duncani; at approximately 2 μM, 72 h): 85%
- Selectivity Index (SI) Vero (vero cells [5]): 243
- Selectivity Index (SI) HFF (HFF cells [6]): 116

Molecule: Tannic acid
- CC50 (HFF cells [2]): 36.5 ± 3.88 µM
- IC50 (BdPyK I [3]; [9]): 0.03 µM
- IC50 (BdPyK I [3]; 3 mM PEP and 3 mM ADP, read-out: IC50 on BdPyK I (Figure 9)): 0.0332 µM
- IC50 (BdPyK I [3]; Table 3, read-out: IC50 PyK I Activity): 0.03 µM
- CC50 (vero cells [4]): 53 ± 2.37 µM
- IC50 (B. duncani; in vitro culture, 72 h, Table 3, read-out: IC50 B. duncani): 1.71 ± 0.33 µM
- IC50 (BdLDH): 1.32 µM

Molecule: CN(CCOc1ccc(CC2SC(=O)NC2=O)cc1)c1ccccn1 (stereo not shown) [Rosiglitazone]
- IC50 (BdPyK I [3]; [9]): 7.36 µM
- IC50 (B. duncani; [11]): 20.9 µM
- parasite growth inhibition (B. duncani; 72 h): 80%
